Measurements published in US20230002327A1, “SMALL-MOLECULE REGULATOR OF TLR8” (TSINGHUA UNIVERSITY, priority 2019, published 2023).

The molecules below were run against T1, TLR7 (Homo sapiens, UniProt Q9NYK1) (assay: Inhibition of R848-induced signaling in HEK-Blue hTLR7 cell line (Quanti-Blue)). Conditions: not given.
T1 construct: host or cells: HEK-Blue hTLR7 (HEK293-derived SEAP reporter cells)
T1 sequence (Q9NYK1 27-1049): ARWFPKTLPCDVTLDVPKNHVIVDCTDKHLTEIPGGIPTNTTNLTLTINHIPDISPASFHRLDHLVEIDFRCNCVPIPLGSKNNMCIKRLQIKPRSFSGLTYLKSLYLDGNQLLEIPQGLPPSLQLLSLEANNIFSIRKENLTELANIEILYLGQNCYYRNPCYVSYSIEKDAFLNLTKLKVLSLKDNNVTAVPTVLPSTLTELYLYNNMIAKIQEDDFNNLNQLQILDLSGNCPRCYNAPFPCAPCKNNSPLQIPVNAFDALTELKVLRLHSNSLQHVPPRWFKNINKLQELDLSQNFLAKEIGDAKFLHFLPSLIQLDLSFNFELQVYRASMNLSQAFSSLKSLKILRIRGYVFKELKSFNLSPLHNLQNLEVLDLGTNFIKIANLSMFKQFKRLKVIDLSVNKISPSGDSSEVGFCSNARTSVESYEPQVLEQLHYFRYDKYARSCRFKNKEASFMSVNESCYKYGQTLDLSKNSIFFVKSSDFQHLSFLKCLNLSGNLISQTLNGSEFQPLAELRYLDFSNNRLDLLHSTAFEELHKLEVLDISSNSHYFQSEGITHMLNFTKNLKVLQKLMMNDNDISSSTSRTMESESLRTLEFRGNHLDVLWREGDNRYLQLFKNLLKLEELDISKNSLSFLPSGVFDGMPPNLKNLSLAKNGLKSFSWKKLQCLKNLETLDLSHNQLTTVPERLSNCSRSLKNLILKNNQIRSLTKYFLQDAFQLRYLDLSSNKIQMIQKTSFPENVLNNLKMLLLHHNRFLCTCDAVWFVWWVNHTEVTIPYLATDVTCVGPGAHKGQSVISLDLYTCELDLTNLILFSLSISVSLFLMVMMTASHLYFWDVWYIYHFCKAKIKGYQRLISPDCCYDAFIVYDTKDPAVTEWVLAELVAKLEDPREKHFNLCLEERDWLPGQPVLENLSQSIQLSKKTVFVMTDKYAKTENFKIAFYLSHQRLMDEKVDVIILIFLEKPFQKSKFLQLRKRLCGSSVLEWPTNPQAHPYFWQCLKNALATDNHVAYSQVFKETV
Type: cell-based
Experimental: (§1) HEK Blue hTLR8 cells or HEK Blue hTLR7 cells were cultured in DMEM medium supplemented with 10% fetal bovine serum, penicillin (100 U/mL) and streptomycin ([…]). Thereafter, cells were seeded in 96-well plate (45,000 cells per well), and were cultured for 24 hours in a humidified incubator (37° C., 5% CO2).
After 24 hours, the supernatant and suspending cells were aspirated and replaced with fresh serum-free DMEM. Cells were treated with 1 μg/mL of R848 (agonist of TLR7/8) or 5 μg/mL of ssRNA40/LyoVec or 5 μg/mL of ORN06/LyoVec (InvivoGen) and compounds with specified concentrations, and were placed in a humidified incubator (37° C., 5% CO2) for co-culture.
(§2) After 24 hours, 50 μL of the medium was aspirated from each well and then added to a new 96-well plate, followed by the addition of 50 μL of Quanti-Blue in each well and the incubation at 37° C. in darkness. Changes in color would occur in the […] within 60 minutes, and the absorbance was measured at 620 nm by using the multi-mode plate reader Vrioskan Flash. Inhibition rate (%)=[R848 (OD620)−Compound (OD620)]/[R848 (OD620)−Control (OD620)]×100%. Among these, the control group was only added with the same amount of cells. Finally, the software Prism 6.0 was utilized to plot a graph and calculate IC50 values. Or, the activity of the cells treated with ligand and DMSO was defined as 100% activity, and the activity of the untreated cells was defined as 0% activity.
In the case of `CCOCc1nc(-c2ccccc2)c(-c2ccccc2)n1CC(C)(C)O` [Compound 49, 1-[2-(ethoxymethyl)-4,5-diphenyl-1H-imidazole-1-yl]-2-methylpropan-2-ol], the “TLR7 (normalized inhibitory effect on R848-induced signaling)” value is reported as 0.8 ± 0.0.
With `CC(C)Cn1cnc(I)c1-c1ccccc1` [Compound 59, 4-iodo-1-(2-methylpropyl)-5-phenyl-1H-imidazole] the “TLR7 (normalized inhibitory effect on R848-induced signaling)” value was 0.2 ± 0.1.
In the case of `CCOCc1nc(C(C)(C)O)c(-c2ccccc2)n1CC(C)(C)O` [Compound 47, 1-[2-(ethoxymethyl)-4-(2-hydroxypropan-2-yl)-5-phenyl-1H-imidazole-1-yl]-2-methylpropan-2-ol], the “TLR7 (normalized inhibitory effect on R848-induced signaling)” value is reported as 0.8 ± 0.0.

What follows are molecules tested against T2, TLR8 (Homo sapiens, UniProt Q9NR97) (assay: Inhibition of R848-induced signaling in HEK-Blue hTLR8 cell line (Quanti-Blue)). Conditions: HEK-Blue hTLR8 cell line; normalized, ligand+DMSO = 100% activity, untreated = 0%.
T2 construct: host or cells: HEK-Blue hTLR8 (HEK293-derived SEAP reporter cells)
T2 sequence (Q9NR97 27-1041): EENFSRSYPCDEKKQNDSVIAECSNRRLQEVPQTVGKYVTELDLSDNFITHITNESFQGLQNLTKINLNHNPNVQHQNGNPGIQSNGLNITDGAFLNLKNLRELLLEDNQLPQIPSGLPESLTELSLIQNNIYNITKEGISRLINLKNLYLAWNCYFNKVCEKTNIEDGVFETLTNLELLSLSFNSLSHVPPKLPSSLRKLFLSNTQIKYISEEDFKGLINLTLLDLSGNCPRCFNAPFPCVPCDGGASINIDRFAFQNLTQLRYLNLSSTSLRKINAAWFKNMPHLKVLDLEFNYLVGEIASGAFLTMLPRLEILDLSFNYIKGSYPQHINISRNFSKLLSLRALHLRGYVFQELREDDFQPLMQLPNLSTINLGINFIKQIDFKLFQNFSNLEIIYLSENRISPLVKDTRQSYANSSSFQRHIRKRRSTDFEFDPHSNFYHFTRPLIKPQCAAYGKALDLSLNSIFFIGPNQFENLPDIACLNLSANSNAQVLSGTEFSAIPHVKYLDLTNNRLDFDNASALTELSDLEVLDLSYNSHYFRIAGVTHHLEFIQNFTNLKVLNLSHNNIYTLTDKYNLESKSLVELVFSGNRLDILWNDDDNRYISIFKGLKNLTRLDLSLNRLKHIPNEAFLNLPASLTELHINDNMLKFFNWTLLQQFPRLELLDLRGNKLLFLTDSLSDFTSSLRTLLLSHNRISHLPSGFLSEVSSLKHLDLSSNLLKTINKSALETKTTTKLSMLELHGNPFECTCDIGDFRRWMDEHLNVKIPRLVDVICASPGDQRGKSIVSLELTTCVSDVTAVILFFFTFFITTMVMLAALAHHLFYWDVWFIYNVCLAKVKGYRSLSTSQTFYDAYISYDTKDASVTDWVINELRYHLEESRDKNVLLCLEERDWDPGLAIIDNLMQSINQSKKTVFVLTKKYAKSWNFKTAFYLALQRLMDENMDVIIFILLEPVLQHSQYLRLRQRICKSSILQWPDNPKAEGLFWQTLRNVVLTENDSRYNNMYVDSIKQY
Type: cell-based
Experimental: as §1
After 24 hours, the supernatant and suspending cells were aspirated and replaced with fresh serum-free DMEM.
as §2
With `CCOCc1nc(-c2ccccc2)c(-c2ccccc2)n1CC(C)(C)O` [Compound 49, 1-[2-(ethoxymethyl)-4,5-diphenyl-1H-imidazole-1-yl]-2-methylpropan-2-ol] the “Remaining R848-induced TLR8 signaling (normalized activity; ligand+DMSO = 1, untreated = 0)” value was 0.6 ± 0.0.
With `CC(C)Cn1cnc(I)c1-c1ccccc1` [Compound 59, 4-iodo-1-(2-methylpropyl)-5-phenyl-1H-imidazole] the “Remaining R848-induced TLR8 signaling (normalized activity; ligand+DMSO = 1, untreated = 0)” value was 0.2 ± 0.1.
For `CCOCc1nc(C(C)(C)O)c(-c2ccccc2)n1CC(C)(C)O` [Compound 47, 1-[2-(ethoxymethyl)-4-(2-hydroxypropan-2-yl)-5-phenyl-1H-imidazole-1-yl]-2-methylpropan-2-ol], the “Remaining R848-induced TLR8 signaling (normalized activity; ligand+DMSO = 1, untreated = 0)” value was 0.9 ± 0.1.

Same assay, conditions: R848-induced signaling, HEK-Blue hTLR8 cell line; value ± standard deviation, at least triplicate
Work on `CSc1nnc(CCCO)n1-c1c(Cl)cc(Cl)cc1Cl` [Compound 21, 3-(5-(methylthio)-4-(2,4,6-trichlorophenyl)-4H-1,2,4-triazole-3-yl)propan-1-ol] yielded an IC50 of 2810 ± 440 nM.
Molecule `CC(C)Sc1nnc(CCCO)n1-c1ccc(Cl)cc1Cl` [Compound 12, 3-(4-(2,4-dichlorophenyl)-5-(isopropylthio)-4H-1,2,4-triazole-3-yl)propan-1-ol] has an IC50 of 10100 ± 800 nM.
Molecule `CSc1nnc(CCO)n1-c1ccc(Cl)cc1Cl` [Compound 4, 2-(4-(2,4-dichlorophenyl)-5-(methylthio)-4H-1,2,4-triazole-3-yl)ethan-1-ol] has an IC50 of 590 ± 30 nM.
`COc1ccc(-n2c(CCCO)nnc2SC)cc1` [Compound 25, 3-(4-(4-methoxyphenyl)-5-(methylthio)-4H-1,2,4-triazole-3-yl)propan-1-ol] gave an IC50 of 3860 ± 310 nM.
Work on `CSc1nnc(CCCO)n1-c1cccc(Cl)c1` [Compound 18, 3-(4-(3-chlorophenyl)-5-(methylthio)-4H-1,2,4-triazole-3-yl)propan-1-ol] yielded an IC50 of 350 ± 20 nM.
In the case of `CSc1nnc(CCCO)n1-c1ccc(Cl)c(Cl)c1` [Compound 19, 3-(4-(3,4-dichlorophenyl)-5-(methylthio)-4H-1,2,4-triazole-3-yl)propan-1-ol], the IC50 is reported as 190 ± 10 nM.
`Fc1cccc(-n2cnnc2SCc2c(Cl)cccc2Cl)c1` [Compound 1, 3-((2,6-dichlorobenyl)thio)-4-(3-fluorophenyl)-4H-1,2,4-triazole] showed an IC50 of 1950 ± 190 nM.
Work on `CSc1nnc(CCCO)n1-c1ccc(F)cc1F` [Compound 15, 3-(4-(2,4-difluorophenyl)-5-(methylthio)-4H-1,2,4-triazole-3-yl)propan-1-ol] yielded an IC50 of 2130 ± 560 nM.
With `CSc1nnc(CCCO)n1-c1cnc2ccccc2c1` [Compound 36, 3-(5-(methylthio)-4-(quinolin-3-yl)-4H-1,2,4-triazole-3-yl)propan-1-ol] the IC50 was 740 nM.
For `CSc1nnc(CCCO)n1-c1cc(Cl)c(Cl)c(Cl)c1` [Compound 23, 3-(5-(methylthio)-4-(3,4,5-trichlorophenyl)-4H-1,2,4-triazole-3-yl)propan-1-ol], the IC50 was 110 ± 10 nM.
With `OCCCc1nnc(SCc2c(Cl)cccc2Cl)n1-c1ccc(F)cc1F` [Compound 33, 3-(5-((2,6-dichlorobenzyl)thio)-4-(2,4-difluorophenyl)-4H-1,2,4-triazole-3-yl)propan-1-ol] the IC50 was 8440 ± 780 nM.
Molecule `CCCc1nnc(SC)n1-c1ccc(Cl)cc1Cl` [Compound 7, 4-(2,4-dichlorophenyl)-3-(methylthio)-5-propyl-4H-1,2,4-triazole] has an IC50 of 630 ± 20 nM.
`OCCCc1nnc(SCC2CC2)n1-c1ccc(Cl)cc1Cl` [Compound 13, 3-(5-((cyclopropylmethyl)thio)-4-(2,4-dichlorophenyl)-4H-1,2,4-triazole-3-yl)propan-1-ol] showed an IC50 of 8010 ± 130 nM.
For `CCSc1nnc(CCCO)n1-c1ccc(Cl)cc1Cl` [Compound 11, 3-(4-(2,4-dichlorophenyl)-5-(ethylthio)-4H-1,2,4-triazole-3-yl)propan-1-ol], the IC50 was 390 ± 40 nM.
For `OCCCCc1nnc(SCc2c(Cl)cccc2Cl)n1-c1ccc(F)cc1F` [Compound 34, 4-(5-((2,6-dichlorobenzyl)thio)-4-(2,4-difluorophenyl)-4H-1,2,4-triazole-3-yl)butan-1-ol], the IC50 was 11400 ± 700 nM.
With `CSc1nnc(CCCO)n1-c1ccc(Cl)c(Cl)c1Cl` [Compound 22, 3-(5-(methylthio)-4-(2,3,4-trichlorophenyl)-4H-1,2,4-triazole-3-yl)propan-1-ol] the IC50 was 600 ± 100 nM.
`CSc1nnc(CCCO)n1-c1ccc2ncccc2c1` [Compound 37, 3-(5-(methylthio)-4-(quinolin-6-yl)-4H-1,2,4-triazole-3-yl)propan-1-ol] was tested, and the IC50 was 650 ± 10 nM.
Work on `Cc1nnc(SCc2c(Cl)cccc2Cl)n1-c1cccc(F)c1` [Compound 2, 3-((2,6-dichlorobenzyl)thio)-4-(3-fluorophenyl)-5-methyl-4H-1,2,4-triazole] yielded an IC50 of 6180 ± 290 nM.
`CSc1nnc(CCCO)n1-c1ccccc1Cl` [Compound 17, 3-(4-(2-chlorophenyl)-5-(methylthio)-4H-1,2,4-triazole-3-yl)propan-1-ol] gave an IC50 of 980 nM.
`CSc1nnc(CCCO)n1-c1ccc(C(F)(F)F)cc1` [Compound 26, 3-(5-(methylthio)-4-(4-(trifluoromethyl)phenyl)-4H-1,2,4-triazole-3-yl)propan-1-ol] gave an IC50 of 4840 ± 820 nM.
Work on `CSc1nnc(CCCO)n1-c1cccc(Cl)c1Cl` [Compound 20, 3-(4-(2,3-dichlorophenyl)-5-(methylthio)-4H-1,2,4-triazole-3-yl)propan-1-ol] yielded an IC50 of 800 ± 70 nM.
